Laboratory results: patent US7179813B2, “Bicyclic indolyl derivatives and methods for their use as serotonergic agents” (Wyeth, priority 2003, dated 2007)
Where a name gives a salt, the structure may show the parent alone. Read-outs that look alike come from different tables or passages of the source.

Key:
[1] = animal models; cited from earlier work
[2] = molecular target: T1, human 5-HT1A receptor (Homo sapiens, UniProt P08908); assay: Serotonin 5-HT1A binding, displacement of [3H]8-OH-DPAT; conditions: [3H]8-OH-DPAT displacement, CHO cells stably transfected with human 5-HT1A receptor
T1 construct: expressed in transfected cells; host or cells: CHO cells (stably transfected)
T1 sequence (P08908 1-422): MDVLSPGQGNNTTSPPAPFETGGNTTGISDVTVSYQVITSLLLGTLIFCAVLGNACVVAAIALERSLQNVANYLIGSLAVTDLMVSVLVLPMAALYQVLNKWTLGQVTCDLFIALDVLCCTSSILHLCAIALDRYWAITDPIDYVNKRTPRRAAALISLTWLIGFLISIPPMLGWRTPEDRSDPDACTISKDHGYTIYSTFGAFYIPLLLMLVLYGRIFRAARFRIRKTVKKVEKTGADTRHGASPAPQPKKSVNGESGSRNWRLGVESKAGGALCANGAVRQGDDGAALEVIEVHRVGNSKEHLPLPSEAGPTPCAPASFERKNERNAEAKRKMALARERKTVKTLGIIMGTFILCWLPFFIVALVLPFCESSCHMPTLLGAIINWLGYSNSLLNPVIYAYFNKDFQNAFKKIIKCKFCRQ
Excerpt: Affinity for the serotonin 5-HT1A receptor was established by assaying the test compound's ability to displace [^3H]8-OH-DPAT from its binding site on the receptor complex in CHO cells stably transfected with the human 5-HT1A receptor following the procedure described by Dunlop et al., J. PharmacoL ToxicoL Methods 1998, 40, 47.

[3] = molecular target: T1, human 5-HT1A receptor; assay: Antagonism of 8-OH-DPAT inhibition of forskolin-stimulated cyclic-AMP turnover in transfected CHO cells; assay type: cell-based; conditions: CHO cells with human 5-HT1A receptor, read-out: cAMP IC50
[4] = test system: DU-145; conditions: DU-145, in vitro; cited from earlier work
[5] = test system: PC3 cell line; conditions: athymic nude mice; cited from earlier work
[6] = test system: PC3; conditions: PC3, in vitro; cited from earlier work
[7] = test system: LNCaP; conditions: in vitro; cited from earlier work
[8] = in vivo; cited from earlier work
[9] = cited from earlier work
[10] = test system: marmosets; conditions: cited from earlier work

## COc1ccccc1N1CCN(CC[C@](C)(C(=O)C2CCCCC2)c2ccccc2)CC1 [LY 426965]
[1]
  anxiogenic behaviors induced by nicotine withdrawal: blocked

## C[C@H](CN(C(=O)C1C2CCC1CC2)c1ccccn1)N1CCN(c2cccc3[nH]ccc23)CC1 (stereo partly drawn) [Example 3, N-{(2R)-2-[4-(1H-Indol-4-yl)piperazin-1-yl]propyl}-N-pyridin-2-yl-bicyclo[2.2.1]heptane-7-carboxamide]
[2]
  Ki: 0.98 nM
[3]
  IC50: 74.5 nM

## C[C@H](CN(C(=O)[C@H]1CC2CCC1CC2)c1ccccn1)N1CCN(c2cccc3[nH]ccc23)CC1 [Example 1, (S)-N-{(2R)-2-[4-(1H-Indol-4-yl)piperazin-1-yl]propyl}-N-pyridin-2-yl-bicyclo[2.2.2]octane-2-carboxamide]
[2]
  Ki: 0.68 nM
[3]
  IC50: 4.1 nM

## C[C@H](CN(C(=O)C1(C)C2CCC1CC2)c1ccccn1)N1CCN(c2cccc3[nH]ccc23)CC1 (stereo partly drawn) [Example 4, N-{(2R)-2-[4-(1H-indol-4-yl)piperazin-1-yl]propyl}-7-methyl-N-pyridin-2-yl-bicyclo[2.2.1]heptane-7-carboxamide]
[2]
  Ki: 0.45 nM
[3]
  IC50: 6.7 nM

## COc1ccccc1N1CCN(CCCCN2C(=O)c3ccccc3C2=O)CC1 [NAN-190]
[1]
  anxiogenic behaviors induced by nicotine withdrawal: blocked

## pindobind
[4]
  antineoplastic activity: antineoplastic activity
[5]
  growth of the PC3 cell line in vivo: inhibited the growth
[6]
  antineoplastic activity: antineoplastic activity
[7]
  antineoplastic activity: antineoplastic activity

## C[C@H](CN(C(=O)[C@H]1CC2CCC1CC2)c1ccccn1)N1CCN(c2cccc3[nH]ccc23)CC1 (as salt: hydrochloride) [Example 1, (S)-N-{(2R)-2-[4-(1H-Indol-4-yl)piperazin-1-yl]propyl}-N-pyridin-2-yl-bicyclo[2.2.2]octane-2-carboxamide]
other
  melting point: 180 to 182 °C

## C[C@H](CN(C(=O)[C@@H]1CC2CCC1CC2)c1ccccn1)N1CCN(c2cccc3[nH]ccc23)CC1 [Example 2, (R)-N-[(2R)-2-[4-(1H-Indol-4-yl)-1-piperazinyl]propyl]-N-2-pyridin-2-yl-bicyclo[2.2.2]octane-2-carboxamide]
[2]
  Ki: 0.69 nM
[3]
  IC50: 2.2 nM

## COc1ccccc1N1CCN(CC(C(=O)NC(C)(C)C)c2ccccc2)CC1 (centres unmarked) [WAY-100135]
[8]
  impairment of spatial learning caused by intrahippocampal scopolamine: prevented the impairment of spatial learning

## C[C@H](CN(C(=O)C1C2CCC1CC2)c1ccccn1)N1CCN(c2cccc3[nH]ccc23)CC1 (stereo partly drawn) (as salt: hydrochloride) [Example 3, N-{(2R)-2-[4-(1H-Indol-4-yl)piperazin-1-yl]propyl}-N-pyridin-2-yl-bicyclo[2.2.1]heptane-7-carboxamide]
other
  melting point: 176 to 179 °C

## C[C@H](CN(C(=O)C1(C)C2CCC1CC2)c1ccccn1)N1CCN(c2cccc3[nH]ccc23)CC1 (stereo partly drawn) (as salt: hydrochloride) [Example 4, N-{(2R)-2-[4-(1H-indol-4-yl)piperazin-1-yl]propyl}-7-methyl-N-pyridin-2-yl-bicyclo[2.2.1]heptane-7-carboxamide]
other
  melting point: 236 to 238 °C

## OC(CNC1CCCCC1)COc1cccc2[nH]ccc12 (centres unmarked) [LY206130]
[1]
  anxiogenic behaviors induced by nicotine withdrawal: blocked

## CC(C)NCC(O)COc1cccc2[nH]ccc12 (centres unmarked) [pindolol]
[9]; co-administered with the SSRI fluoxetine
  median time needed to achieve a sustained antidepressant response: significantly reduced the median time
[9]; co-administered with the SSRI paroxetine
  median time needed to achieve a sustained antidepressant response: significantly reduced the median time

## COc1ccccc1N1CCN(CCN(C(=O)C2CCCCC2)c2ccccn2)CC1 [WAY-100635]
[1]
  anxiogenic behaviors induced by nicotine withdrawal: blocked
[10]
  cognitive deficits induced by fomix lesions: reversed the cognitive deficits
